The values that follow come from ChEMBL document CHEMBL4266060, “Structure-Property Relationship Studies of Influenza A Virus AM2-S31N Proton Channel Blockers” (ACS Med Chem Lett, 2018).

The test system of this assay is Matrix protein 2 (Influenza A virus (A/Udorn/307/1972(H3N2))), P0DOF8 [S31N]. The experiment in a line: Inhibition of Influenza A virus AM2 S31N mutant expressed in xenopus laevis frog oocytes assessed as inhibition of channel current at 100 uM after 2 mins by two-electrode voltage clamp assay relative to control. Format: cell-based.

By inhibition is commonly meant the relative decrease from the control value, in per cent.

On to `OC12CC3CC(C1)CC(NCc1cnc(Br)s1)(C3)C2`, for which the inhibition is 33.5%. As for `OC12CC3CC(C1)CC(NCc1ccc(-c4ccc(F)cc4F)s1)(C3)C2`, the inhibition came to 74.5%. With `COc1ccc(-c2ccc(CNC34CC5CC(CC(O)(C5)C3)C4)s2)cn1`, the inhibition worked out at 68.3%.

As for `CSc1ccccc1-c1ccc(CNC23CC4CC(CC(O)(C4)C2)C3)s1`, the inhibition amounted to 73.4%. On to `OC12CC3CC(C1)CC(NCc1ccc(-c4ccccc4)s1)(C3)C2`, for which the inhibition was 84.6%. As for `c1csc(-c2ccc(CNC34CC5CC(CC(C5)C3)C4)s2)c1`, the inhibition stood at 86.1%.

`COc1ncc(-c2ccc(CNC34CC5CC(CC(O)(C5)C3)C4)s2)cn1`: the inhibition amounted to 4.4%. In the case of `COc1ccc(-c2ccc(CNC34CC5CC(CC(O)(C5)C3)C4)s2)cc1OC` it was 37.6%; in that of `OC12CC3CC(C1)CC(NCc1ccc(-c4ccccc4Cl)s1)(C3)C2`, 78.7%; in that of `OC12CC3CC(C1)CC(NCc1ccc(Br)s1)(C3)C2`, 64.7%.

In the case of `OC12CC3CC(C1)CC(NCc1nc(Br)cs1)(C3)C2`, the inhibition amounted to 36%. For `Brc1ccc(CNC23CC4CC(CC(C4)C2)C3)[se]1`, the inhibition was found to be 70.6%. Regarding `Ic1ccc(CNC23CC4CC(CC(C4)C2)C3)s1`, the inhibition came out at 78.5%.

On to `Brc1ccc(CNC23CCC4CC(CC(C4)C2)C3)s1`, for which the inhibition came out at 72.6%. With `OC12CC3CC(C1)CC(NCc1ccc(I)s1)(C3)C2`, the inhibition was found to be 75.6%.

With `OC12CC3CC(C1)CC(NCc1csc(Br)c1)(C3)C2`, the inhibition is 48.3%.

Consider `COC(=O)c1ccc(-c2ccc(CNC34CC5CC(CC(O)(C5)C3)C4)s2)cc1`, for which the inhibition was 64.3%.

With `OC12CC3CC(C1)CC(NCc1cc(Br)cs1)(C3)C2`, the inhibition is 56.6%.
